Measured values reported in ChEMBL document CHEMBL1132469 (J Med Chem, 1999).
pIC50: −log10 of the molar value.

Tests used:
Histone deacetylase HD2 [1] = target: T1, Histone deacetylase HD2 (Zea mays, UniProt Q94F81); test: Inhibition of maize Histone Deacetylase 2 (HD-2) activity (inactive at 40 uM)
T1 sequence (Q94F81 whole entry): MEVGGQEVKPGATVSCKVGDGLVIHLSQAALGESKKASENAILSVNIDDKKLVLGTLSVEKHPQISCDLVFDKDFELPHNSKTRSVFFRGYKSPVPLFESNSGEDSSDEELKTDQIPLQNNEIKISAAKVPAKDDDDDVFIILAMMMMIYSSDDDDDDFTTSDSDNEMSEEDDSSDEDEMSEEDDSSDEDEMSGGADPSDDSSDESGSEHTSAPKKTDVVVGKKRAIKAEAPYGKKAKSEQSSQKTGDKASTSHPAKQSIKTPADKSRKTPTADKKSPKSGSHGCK

Histone deacetylase HD2 [2] = target: T1, Histone deacetylase HD2; test: Inhibition of maize Histone deacetylase 2 (HD-2) activity

IC50 (Histone deacetylase HD2 [1])	pIC50 (Histone deacetylase HD2 [2])	SMILES
Not Active		O=C(O)CCCCCNC(=O)c1ccccc1
	5.70	CN(C)c1ccc(C(=O)NCCCCC(=O)NO)cc1
	6.74	CN(C)c1ccc(C(=O)NCc2ccc(C(=O)NO)cc2)cc1
Not Active		CN(C)c1ccc(C(=O)Nc2ccc(CC(=O)NO)cc2)cc1
Not Active		CN(C)c1ccc(C(=O)Nc2ccc(CC(=O)O)cc2)cc1
	7.00	CN(C)c1ccc(C(=O)NCCCCCC(=O)NO)cc1

SMILES	IC50 (Histone deacetylase HD2 [1])	pIC50 (Histone deacetylase HD2 [2])
CN(C)c1ccc(C(=O)NCCCCCCC(=O)NO)cc1		7.00
